# Test system: EpidermFT™ Skin Model (EFT-400) full thickness skin cultures
# Assay: Affymetrix GeneChip HG U133 Plus 2.0 microarray global gene expression, agent-exposed vs untreated skin cultures
# Assay type: cell-based, human
# Details: 24 hr; for Direction / Fold change: Salicin 0.5%
# [1] = 210424_s_at GOLGA8A /// GOLGA8B
smiles,measurement,setting,value
"OCc1ccccc1O[C@@H]1O[C@H](CO)[C@@H](O)[C@H](O)[C@H]1O [Salicin, 2-(Hydroxymethyl)phenyl β-D-glucospyranoside]",Fold change SPTLC2 (203128_at),"0.5% vs untreated, down",3.78
same,Fold change SPTLC2 (225095_at),"0.5% vs untreated, down",3.474
same,Fold change ST14 (216905_s_at),"0.5% vs untreated, down",3.604
same,Fold change STARD5 (213820_s_at),"0.5% vs untreated, down",3.436
same,Fold change STON2 (227461_at),"0.5% vs untreated, down",3.288
same,Fold change STOX2 (231969_at),"0.5% vs untreated, down",3.5
same,Fold change STYK1 (220030_at),"0.5% vs untreated, down",3.584
same,Fold change SYK (207540_s_at),"0.5% vs untreated, down",3.163
same,Fold change SYNE2 (202761_s_at),"0.5% vs untreated, down",3.62
same,Fold change SYTL1 (227134_at),"0.5% vs untreated, down",3.294
same,Fold change TACC2 (211382_s_at),"0.5% vs untreated, down",3.335
same,Fold change TGFA (205015_s_at),"0.5% vs untreated, down",3.134
same,Fold change TGM3 (206004_at),"0.5% vs untreated, down",3.783
same,Fold change THBD (203887_s_at),"0.5% vs untreated, down",3.137
same,Fold change TIAM1 (206409_at),"0.5% vs untreated, down",3.792
same,Fold change TM7SF3 (217974_at),"0.5% vs untreated, down",3.241
same,Fold change TMEM54 (225536_at),"0.5% vs untreated, down",3.354
same,Fold change TMEM184A (1558281_a_at),"0.5% vs untreated, down",3.052
same,Fold change TPD52L1 (203786_s_at),"0.5% vs untreated, down",3.196
same,Fold change TRIM7 (223694_at),"0.5% vs untreated, down",3.302
same,Fold change TRIM7 (239694_at),"0.5% vs untreated, down",3.174
same,Fold change TRIM14 (203147_s_at),"0.5% vs untreated, down",3.14
same,Fold change TRIM14 (203148_s_at),"0.5% vs untreated, down",3.658
same,Fold change TRIM25 (224806_at),"0.5% vs untreated, down",3.869
same,Fold change TST (209605_at),"0.5% vs untreated, down",3.038
same,Fold change UBL3 (201534_s_at),"0.5% vs untreated, down",3.354
same,Fold change UGT1A1 /// UGT1A10 /// UGT1A4 /// UGT1A6 /// UGT1A8 /// UGT1A9 (207126_x_at),"0.5% vs untreated, down",3.18
same,Fold change UPK1B (210065_s_at),"0.5% vs untreated, down",3.412
same,Fold change USP2 (229337_at),"0.5% vs untreated, down",3.391
same,Fold change USP6NL (238164_at),"0.5% vs untreated, down",3.19
same,Fold change VAMP8 (202546_at),"0.5% vs untreated, down",3.922
same,Fold change VWA5A (210102_at),"0.5% vs untreated, down",3.897
same,Fold change WNT3 (229103_at),"0.5% vs untreated, down",3.218
same,Fold change XG (1554062_at),"0.5% vs untreated, down",3.378
same,Fold change ZBTB7C (227782_at),"0.5% vs untreated, down",3.288
same,Fold change ZNF91 (206059_at),"0.5% vs untreated, down",3.205
same,Direction,63825_at ABHD2,up
same,Fold change,63825_at ABHD2,2.157
same,Direction,201467_s_at NQO1,up
same,Fold change,201467_s_at NQO1,2.122
same,Direction,201468_s_at NQO1,up
same,Fold change,201468_s_at NQO1,2.093
same,Direction,202724_s_at FOXO1,up
same,Fold change,202724_s_at FOXO1,2.098
same,Direction,202952_s_at ADAM12,up
same,Fold change,202952_s_at ADAM12,2.155
same,Direction,203066_at GALNAC4S-6ST,up
same,Fold change,203066_at GALNAC4S-6ST,2.113
same,Direction,203426_s_at IGFBP5,up
same,Fold change,203426_s_at IGFBP5,2.075
same,Direction,203518_at LYST,up
same,Fold change,203518_at LYST,2.15
same,Direction,203740_at MPHOSPH6,up
same,Fold change,203740_at MPHOSPH6,2.138
same,Direction,203853_s_at GAB2,up
same,Fold change,203853_s_at GAB2,2.114
same,Direction,204115_at GNG11,up
same,Fold change,204115_at GNG11,2.108
same,Direction,204396_s_at GRK5,up
same,Fold change,204396_s_at GRK5,2.087
same,Direction,204420_at FOSL1,up
same,Fold change,204420_at FOSL1,2.141
same,Direction,204456_s_at GAS1,up
same,Fold change,204456_s_at GAS1,2.089
same,Direction,204742_s_at PDS5B,up
same,Fold change,204742_s_at PDS5B,2.139
same,Direction,204790_at SMAD7,up
same,Fold change,204790_at SMAD7,2.151
same,Direction,205110_s_at FGF13,up
same,Fold change,205110_s_at FGF13,2.158
same,Direction,208415_x_at ING1,up
same,Fold change,208415_x_at ING1,2.15
same,Direction,209436_at SPON1,up
same,Fold change,209436_at SPON1,2.145
same,Direction,210145_at PLA2G4A,up
same,Fold change,210145_at PLA2G4A,2.072
same,Direction,210355_at PTHLH,up
same,Fold change,210355_at PTHLH,2.144
same,Direction,[1],up
same,Fold change,[1],2.127
same,Direction,210519_s_at NQO1,up
same,Fold change,210519_s_at NQO1,2.116
same,Direction,210665_at TFPI,up
same,Fold change,210665_at TFPI,2.091
same,Direction,210841_s_at NRP2,up
same,Fold change,210841_s_at NRP2,2.133
same,Direction,211725_s_at BID,up
same,Fold change,211725_s_at BID,2.092
same,Direction,211981_at COL4A1,up
same,Fold change,211981_at COL4A1,2.121
same,Direction,212298_at NRP1,up
same,Fold change,212298_at NRP1,2.073
same,Direction,212554_at CAP2,up
same,Fold change,212554_at CAP2,2.082
same,Direction,213032_at NFIB,up
same,Fold change,213032_at NFIB,2.146
same,Direction,213033_s_at NFIB,up
same,Fold change,213033_s_at NFIB,2.125
same,Direction,213093_at PRKCA,up
same,Fold change,213093_at PRKCA,2.125
same,Direction,213790_at ADAM12,up
same,Fold change,213790_at ADAM12,2.085
same,Direction,213994_s_at SPON1,up
same,Fold change,213994_s_at SPON1,2.086
same,Direction,214014_at CDC42EP2,up
same,Fold change,214014_at CDC42EP2,2.119
same,Direction,214211_at FTH1,up
same,Fold change,214211_at FTH1,2.154
same,Direction,214913_at ADAMTS3,up
same,Fold change,214913_at ADAMTS3,2.145
same,Direction,215012_at ZNF451,up
same,Fold change,215012_at ZNF451,2.114
same,Direction,215785_s_at CYFIP2,up
same,Fold change,215785_s_at CYFIP2,2.107
